Source: PubChem BioAssay AID179 (DTP/NCI, 2004)
The source made the active and inactive calls.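 Rule for the calls: active = compounds giving half or more protection of infected cells from virus-caused growth loss, again on retest; inactive = the rest.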

System: CEM cells HIV-1 protection, formazan growth assay
Assay: NCI AIDS Antiviral Assay
Conditions: for IC50: measured here: growth of uninfected CEM cells
Summary of the method: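 Protection of CEM cells against HIV-1 measured as cell growth via soluble formazan read-out, with five concentrations tested on both infected and uninfected cells; failure to protect may reflect toxicity.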

Row | SMILES | EC50 [µM] | IC50 [µM] | outcome
1 | OCC1OC(NC(=S)NCSCCC(F)(F)C(F)(F)C(F)(F)C(F)(F)C(F)(F)C(F)(F)F)C(O)C(O)C1O (stereo not drawn) | > 200 | 7.24 | 
2 | N#CC(C#N)=C1C(C#N)=C(N)NC12OCCO2 | > 200 | > 200 | 
3 | COc1cccc(C2c3cc4c(cc3OC(NNC(N)=O)C2C)OCO4)c1OC (stereo not drawn) | > 200 | 8.13 | 
4 | Cc1cc(C)nc(NC(=O)Nc2cccc(C(F)(F)F)c2)c1 | > 200 | > 200 | 
5 | Cc1ccc(S(=O)(=O)N2CCCN(S(=O)(=O)c3ccc(C)cc3)CCSCCCSCC2)cc1 | > 200 | 31.6 | 
6 | COC(=O)n1nnc2ncccc21 | > 200 | > 200 | 
7 | O=c1c(=[n+]2ccc(=C([O-])c3ccccc3)cc2)/c(=N/S(=O)(=O)c2ccccc2)c(=O)c2ccccc12 | > 200 | 6.17 | 
8 | Cc1ccc(S(=O)(=O)NCCCN(CCCNS(=O)(=O)c2ccc(C)cc2)S(=O)(=O)c2ccc(C)cc2)cc1 | > 2.45 | > 2.45 | 
9 | CSC1OC(C)(C)OC1=O (stereo not drawn) | > 200 | > 200 | 
10 | COc1ccccc1CNCCCCCCNCCSSCCNCCCCCCNCc1ccccc1OC | > 200 | 57.5 | 
11 | COc1ccc(/C=C(\C#N)C(=O)c2ccccc2)cc1 | > 97.7 | 56.2 | 
12 | C/C(=C/CNc1ncnc2c1ncn2CCC(=O)O)CO | > 200 | > 200 | 
13 | NNC(=O)c1cc(=O)[nH][nH]1 | > 200 | > 200 | 
14 | Cc1ccc(C)c(NC(=O)C(=O)C(C(=O)c2ccc3ccccc3c2)C2OC(=O)c3ccccc32)c1 (stereo not drawn) | > 53.7 | 23.4 | 
15 | O=C1NN(C2=NNC3(C(=O)N2)c2ccccc2-c2ccccc23)C(c2ccccc2)=N/C1=C/c1ccc(Cl)cc1 | > 100 | 70.8 | 
16 | COc1ccc(C2Oc3cc(OC)c(OC)cc3C2CCl)cc1OC (stereo not drawn) | > 200 | 107 | 
17 | CS/C(=C\c1ccc(C(=O)c2ccc(C)cc2)n1C)S(C)=O (stereo not drawn) | > 200 | 12.3 | 
18 | CN(C)COC(=S)SC(=O)OCCCl | > 200 | > 200 | 
19 | Cc1ccc(-n2c(=S)[nH]c3ccc(C)cc3c2=O)cc1 | > 25.7 | > 25.7 | 
20 | c1ccc(N=c2sc3ccccc3nc2Nc2ccccc2)cc1 | > 200 | 123 | 
21 | C=CCN1C(=O)C/C(=C2/CCC(=O)N2CC=C)C1=O | > 955 | > 955 | 
22 | CC(=O)CC(C)=O.CC(=O)CC(C)=O.CC(=O)CC(C)=O.[Mn] | > 200 | 25.7 | 

Row | SMILES | EC50 [µM] | IC50 [µM] | outcome
23 | Nc1ccc(N=Nc2ccc(C(=O)O)cc2)c(N)c1N=Nc1ccc(N=Nc2ccc(O)c(C(=O)O)c2)cc1 | 49 | > 100 | 
24 | COC(=O)/C=C/C(=O)CC(O)COC(=O)c1ccccc1 (stereo not drawn) | > 85.1 | 2.09 | 
25 | CC1(C)OC(=O)C(=Cc2ccc3c(c2)OCO3)C(=O)O1 | > 129 | 110 | 
26 | Nc1nc(Cl)cc(NCC2(CCO)CCC2)n1 | > 200 | 138 | 
27 | O=C(NCCCCCCNC(=O)n1cc(F)c(=O)[nH]c1=O)NCCCOCCOCCOCCOCCOCCOCCOCCOCCOCCOCCOCCOCCOCCOCCOCCOCCOCCOCCOCCOCCOCCCNC(=O)C(O)C(O)C(O)C(O)CO (stereo not drawn) |  |  | inactive
28 | O=C1CSC2=NC3=C(COC/C3=C\c3ccc(Br)cc3)C(c3ccc(Br)cc3)N12 (stereo not drawn) |  |  | inactive
29 | O=C(NNC(=O)c1ccccc1SSc1ccccc1C(=O)NNC(=O)c1ccccc1S)c1ccccc1S | 17.8 | 33.1 | 
30 | CC(=O)OC1CCC2(C)CC3C=CC2(OO3)C1(C)C (stereo not drawn) | > 200 | 10.7 | 
31 | CN(c1ccccc1)S(=O)(=O)c1ccc([N+](=O)[O-])cc1 | > 200 | 110 | 
32 | O=C(/C=C/c1ccccc1Cl)c1cccc2ccccc12 | > 9.33 | > 9.33 | 
33 | CCCCCCCCCCCCCCCC=C(c1cc(Br)c(OC)c(C(=O)OC)c1)c1cc(Br)c(OC)c(C(=O)OC)c1 | > 27.5 | > 27.5 | 
34 | O=C(NC(O)C(Cl)(Cl)Cl)NC(O)C(Cl)(Cl)Cl (stereo not drawn) | > 200 | > 200 | 
35 | Cn1c(=O)[nH]c(=O)c2[nH]c(=O)c(=O)n(C)c21 | > 200 | > 200 | 
36 | Cc1cc2c(cc1Cl)Sc1nccn1S2(=O)=O | 40.7 | 79.4 | 
37 | CC1(C(=O)NCCN(CCNC(=O)C2(C)CC3(C)CC(C)(C2)C(=O)NC3=O)CCNC(=O)C2(C)CC3(C)CC(C)(C2)C(=O)NC3=O)CC2(C)CC(C)(C1)C(=O)NC2=O (stereo not drawn) |  |  | inactive
38 | [Br][Sn]12[c]3ccccc3CN(Cc3cccc[c]31)Cc1cccc[c]12 | > 200 | > 200 | 
39 | C1Cn2nnnc2N1 | > 2240 | > 2240 | 
40 | C/C(CC(=O)Nc1ccccc1)=N\NC(N)=S | > 1000 | 170 | 
41 | COc1ccc(C(=O)/C=C/c2ccncc2)cc1OC | > 200 | 3.02 | 
42 | OC1CN2CCC[C@@H](O)[C@@H]2C1O (stereo partly drawn) | > 200 | > 200 | 
43 | CC1OC(OC2C(O[C@@H]3C[C@@H]4CC[C@@H]5[C@H](CC[C@]6(C)[C@@H]7[C@H](C[C@@H]56)O[C@]5(CC[C@@H](C)CO5)[C@H]7C)[C@@]4(C)C[C@H]3O)OC(CO)C(OC3OC(CO)C(O)C(O)C3O)C2O)C(O)C(O)C1O (stereo partly drawn) | > 10 | 1.82 | 
